Consider four molecules from patent publication US7652006B2, “Substituted 1(2H)-phthalazinones and pharmaceutical compositions thereof” (Euro-Celtique S.A., priority 1998, dated 2010).

In data set [1] the test system is maximal electroshock induced convulsion. As to the kind of experiment: Maximal Electroshock-induced Seizure (MES) test. The settings on record: iv, anticonvulsant activity against maximal electroshock induced convulsion; for ED50: Mus musculus. In kind it is in vivo, mice. An excerpt:
The compounds of the present invention may be tested for […] anticonvulsant activity after iv or ip injection using a number of anticonvulsant tests in mice (audiogenic seizure model in DBA-2 mice. pentylenetetrazol-induced seizures in mice, maximum electroshock seizure test (MES)). The anticonvulsant activity of the AMPA antagonists may be evaluated in the Maximal Electroshock-induced Seizure (MES) test. Seizures are induced by application of current (50 mA, 60 pulses/sec, […], 1 sec duration, d.c.) through saline-coated corneal electrodes using a Ugo Basile ECT device (Model 7801). […] A tonic seizure is defined as a hindlimb extension in excess of 90 degrees from the plane of the body. Results are treated in a quintal manner. The potency of antagonism or potentiation for these compounds were determined by electrophysiological assay. Potencies of selective compounds described above in inhibiting or modulating AMPA receptors expressed in oocyte and their anticonvulsant activity against maximal electroshock induced convulsion are shown in Table 1.
(In the maximal electroshock model the usual endpoint is tonic extension of the hind limbs.)

Another data set concerns AMPA receptors. As to the kind of experiment: electrophysiological assay, AMPA receptors expressed in oocyte. In kind it is cell-based, rat. The settings on record: inhibiting or modulating AMPA receptors expressed in oocyte; read-out: AMPA IC50. The source says: The compounds of the present invention may be assessed by electrophysiological assays in Xenopus oocytes expressing rat whole brain poly(A)^+ RNA (see Keana et. al. J. Med. Chem. 38: 4367-4379 (1995)) or in cultured rat cortical neurons (see Woodward et. al. Mol. Pharmacol. 47: 568-581 (1995)) for AMPA receptor activity. Compounds which are useful for treating or preventing the adverse consequences of stroke, hypoglycemia, neurodegenerative disorders, anxiety, epilepsy or psychosis, or which induce analgesia, will inhibit the currents across the membranes of the oocyte expressing AMPA receptors. However, if the compound potentiates currents across the oocyte membrane, then the compound is expected to be useful in enhancing cognition or treating schizophrenia or neurodegenerative disease such as Parkinson's Disease.
The potency of antagonism or potentiation for these compounds were determined by electrophysiological assay. Potencies of selective compounds described above in inhibiting or modulating AMPA receptors expressed in oocyte and their anticonvulsant activity against maximal electroshock induced convulsion are shown in Table 1.

With `CC(C)n1c(=O)nc(-c2cc3c(cc2Cl)OCO3)c2cc3c(cc21)OCO3` [1-Isopropyl-6,7-methylenedioxy-4-(2-chloro-4,5-methylenedioxyphenyl)quinazolin-2(1H)-one], the melting point (in general, the temperature of the solid-liquid transition) is 147 to 150 °C. Also, the ED50 (as a rule, the dose that gives a 50% effect, or the effect in half of the subjects) in data set [1] amounted to 6.2 mg/kg. Besides, the half-inhibitory concentration (IC50) (usually the concentration that gives 50% inhibition) in the data set on AMPA receptors stood at 5500 nM.
In the case of `CC(C)n1c(=O)nc(-c2ccc3ccccc3c2)c2cc3c(cc21)OCO3` [1-Isopropyl-6,7-methylenedioxy-4-(2-naphthyl)quinazolin-2(1H)-one], the melting point was in the range of 213 to 215 °C. The median effective dose (ED50) in data set [1] came out at 4.5 mg/kg. Moreover, the IC50 in the data set on AMPA receptors was found to be 2000 nM.
In turn, `CN(C)CCn1c(=O)nc(-c2ccc3c(c2)OCO3)c2cc3c(cc21)OCO3` [1-(2-(dimethylamino)ethyl)-6,7-methylenedioxy-4-(3,4-methylenedioxyphenyl)-quinazolin-2(1H)-one] came in with a melting point of 175 to 182 °C. Also, the “MES ED50” value in data set [1] was found to be 1.5 mg/kg. Besides, the half-maximal inhibitory concentration (IC50) in the data set on AMPA receptors amounted to 1000 nM.
Turning to `CN(C)CCn1c(=O)nc(-c2ccc3c(c2)OCCO3)c2cc3c(cc21)OCO3` [1-(2-(dimethylamino)ethyl)-6,7-methylenedioxy-4-(3,4-ethylenedioxyphenyl)-quinazolin-2(1H)-one], the melting point lay in the range of 220 to 225 °C. Moreover, the ED50 in data set [1] came to 1 mg/kg. In addition, in the data set with AMPA receptors, the concentration for half-maximal inhibition (IC50) turned out to be 200 nM.
